In patent publication EP0569777A2 (Bayer Corporation, priority 1992, dated 1993):
“Also recorded” adds a separate entry of the source. Where a SMILES comes first, the peptide text is derived from it. [ ]: non-standard residue; d: D form. The star is where a group is joined. Sta = CC(C)C[C@H](N)[C@@H](O)CC(=O)O; Isovaleryl = CC(C)CC(=O)*

System: human AD brain fraction P2 V APP degrading activity
Test: Immunoblot assay of APP 695 degradation by Mono-Q pool P2 V
Format: biochemical
Settings: 11.5 kDa fragment, trial A,B, Pepstatin A 400µM (methanolic), pH 6.5, 24 hrs, 37°C
Description: ii) Solubilization. The membranous control or AD subfractions (P-2 or M) were solubilized by adjusting to the following conditions: 2% (v/v) Triton X-100 containing 50 mM Tris HCl buffer, pH 7.5. After stirring at 4°C for 3.5 hrs, the suspensions were centrifuged at 105,000 g x 60 min in a Beckman 70 Ti rotor. The following final protein concentrations were used in solubilization, for P-2 (3.9 to 4.0 mg/ml); and for M (1.4 to 1.6 mg/ml). Solubilized supernatants were stored at -70°C for later use. The soluble fraction was not treated with detergent but rather was adjusted to 50 mM in Tris HCl, pH 7.5, by the addition of stock 1M buffer. iii) Ion-exchange chromatography. Chromatography was performed using a Gilson gradient liquid chromatograph (model 305 and 306 pumps) equipped with a 50 ml Rheodyne stainless steel loop injector model 7125, and connected to a Mono Q HR 10/10 column (Pharmacia, Piscataway, NJ). Absorbance of column effluent was monitored at 280 nm using a Pharmacia UV-M detector and a Kippen-zonen chart recorder. […] In the initial studies, eluted fractions were monitored for A280 nm, total protein (Bradford assay), and peptidase activity (as decsribed in Examples 2 and 3). […] Fractions were monitored for A 280 nm, total protein (Bradford assay), peptidase activity, and activity for C-terminal processing of recombinant APP. […]

## CC(C)CC(=O)N[C@H](C(=O)N[C@H](C(=O)N[C@@H](CC(C)C)[C@@H](O)CC(=O)N[C@@H](C)C(=O)N[C@@H](CC(C)C)[C@@H](O)CC(=O)O)C(C)C)C(C)C [pepstatin A] (Isovaleryl-VV[Sta]A[Sta]-OH)
  Inhibitors (pH 6.5): compounds causing complete inhibition are listed: completely; also recorded: pepstatin A aprotinin
